Data: patent US20090326072A1, “USE OF 2-(2-NITRO-4-TRIFLUOROMETHYLBENZOYL)-l,3- CYCLOHEXANEDIONE IN THE TREATMENT OF PARKINSON'S DISEASE” (priority 2005, published 2009)
“Also recorded” adds a separate entry of the source. Like-named read-outs stand apart in the source and are kept apart here.

Key:
[1] = molecular target: T1, 4-hydroxyphenyl pyruvate dioxygenase (HPPD) (Rattus norvegicus, UniProt P32755); assay: Determination of 4-hydroxyphenyl pyruvate dioxygenase (HPPD) enzyme activity in vitro (rate of oxygen consumption, rat liver cytosol); format: biochemical; details: for inhibition at 0.1 µM: read-out: % Inhibition at 100 nM; for inhibition at 0.3 µM: read-out: % inhibition at 300 nM
T1 construct: rat liver cytosol (2.7 mg of protein/ml incubate); from tissue; host or cells: rat liver (cytosol, 110,000 g supernatant)
Experimental: The principle of the assay is that 4-hydroxyphenyl pyruvate dioxygenase (HPPD), an enzyme that participates in the catabolism of tyrosine, catalyses the oxidative decarboxylation and rearrangement of 4-hydroxyphenylpyruvate (HPPA) to homogentisate, with the incorporation of both atoms of molecular oxygen into the product.
Rat liver was homogenised in buffer of the following composition; 0.25 M Sucrose, 5.4 mM EDTA, 20 mM Tris base, pH 7.4, (25% homogenate) using 6 passes of a Potter type homogeniser. The homogenate was then centrifuged at 1,800 g for 10 minutes at 4° C., the pellet was discarded and the supernatant centrifuged at 17,000 g for a further 15 minutes at 4° C. The pellet was then discarded and the supernatant centrifuged at 110,000 g for 80 minutes at 4° C. The supernatant containing the HPPD enzyme from this 110,000 g spin was collected and stored frozen at −70° C. and used in the assays of the test compounds (see below).
Prior to the start of the enzymatic reaction by the addition of HPPA substrate, the enzyme and test compound (inhibitor) were incubated together for 3 minutes.
In cases where the effects of several concentrations of an inhibitor were investigated, an IC50 value (the half-maximal inhibitory concentration of test compound) was determined by plotting the data using a non-linear regression curve-fitting program using a GraphPad Prism™ software package.
Data are expressed as mean values from two experiments except where indicated. Where appropriate the values are expressed as the mean±standard deviation.

plasma tyrosine = assay: Plasma tyrosine concentration kinetic profile in the rat following a single oral dose; format: in vivo; details: for Plasma Tyrosine Concentration: single oral dose 10 mg/kg; for Plasma tyrosine: single oral dose 2.0 mg/kg
Experimental: The plasma tyrosine concentration kinetic profile in the rat was determined for each of the HPPD inhibitor test compounds by administering a single oral dose to 10-12 week old male Sprague Dawley rats. Compounds 3.20, 3.13 and 3.26 were dosed at 2 mg/kg in 1% carboxymethylcellulose (1% CMC) vehicle, whilst compounds 3.22, 3.12, 3.15, 3.18, 3.23, 3.21, 3.11, 3.01, 3.24 and 3.25 were administered at 10 mg/kg in 1% CMC.
Blood samples to determine plasma tyrosine concentration were obtained at frequent intervals during the first 24 hours post-dose, and at 48 hours post-dose. These samples were either compared with blood samples obtained from control rats which only received an equivalent volume of the vehicle, 1% CMC, or by comparison with control samples obtained from the rats 1 hour prior to dosing with test the compound. Prior to the analysis of the samples for plasma tyrosine concentration, the blood samples were centrifuged at 1800 g for 10 minutes at 4° C. The plasma was collected and then filtered through a centrifugal micro partition device at 1500 g for 30 minutes at 4° C. The filtered plasma was then divided into two aliquots and stored frozen at −70° C. for subsequent gradient reverse phase high performance liquid chromatographic (HPLC) analysis of plasma tyrosine. Aliquots of plasma were analysed by HPLC using a 250×4.6 mm Hichrom S5ODS2 column at 30° C., eluted with a mobile phase of water/acetonitrile/trifluoroacetic acid (950:50:2 v/v/v) at a flow rate of 1 ml/min. Detection was by a diode array detector at 274 nm. Appropriate tyrosine standards were run alongside the samples for calibration purposes.
The plasma tyrosine concentration kinetic profile for the test compounds 3.20, 3.13 and 3.26 are shown at the time points 1, 2, 4, 6, 12, 24 and 48 hours post-dose in Table 1.1. The data shown are the mean±standard deviation (n=4), except for the 6 hour time point where the data were obtained from n=3 rats for the control and 3.26 groups.
The plasma tyrosine concentration kinetic profile for the test compounds 3.22, 3.12, 3.15, 3.18, 3.23, 3.21, 3.11, 3.01, 3.24 and 3.25 are shown at the time points −1 hour (pre-dose control), 1, 3, 6, 12, 24 and 48 hours post-dose, in Tables 1.2 and 1.3. The data shown are the mean±standard deviation (n=3), except for the −1 hour time point with compound 3.23, where n=2 (Table 1.2), and for the 3 and 6 hour time points with compound 3.21, where n=2 (Table 1.3).

[2] = tested on: AMPT rat model of Parkinson's disease; assay: AMPT rat model of Parkinson's disease (catalepsy descent latency and centre rearing counts); format: in vivo
Experimental: AMPT is a competitive inhibitor of tyrosine hydroxylase. Rats dosed with >150 mg/kg AMPT develop parkinsonian-like behavior and locomotor deficits (e.g. catalepsy and reduced rearing activity) within hours owing to the depletion of striatal dopamine concentration as a consequence of the reduced flux through the dopamine synthetic pathway. […] Indian J. Exp. Biol. 41, 1264-1268).
The effect was compared with appropriate vehicle control groups (oral vehicle was 1% carboxymethylcellulose; CMC) and a group that received a 150 mg/kg i.p. dose of L-dopa.
Eight hours after AMPT (or vehicle) administration rats were assessed for catalepsy and centre rearing activity. During the catalepsy test, the front paws of the rat were placed over a horizontal bar suspended 9 cm off the floor. The time taken for the rat to get off the bar (descent latency) was measured with a maximum time of 3 minutes being allowed. Centre rearing counts were determined over a 1 hour monitoring period using an automated activity monitoring system (AM1053). This system used an array of infrared beams to determine the activity and mobility of each animal. Each cage had 48 infrared beams, 24 on each of two levels arranged in an 8×16, 1″ (25.4 mm) pitch grid. The lower grid measured horizontal x, y movement, whilst the upper grid measured rearing movement. The activity detector operated by counting the number of times the beams changed from unbroken to broken and then incrementing the relevant counters.
These groups were compared to a positive control group (6) dosed with 225 mg/kg AMPT i.p.+150 mg/kg L-dopa i.p. 6.5 hour post AMPT dose. L-dopa was administered with a peripheral dopa decarboxylase inhibitor (benserazide), at 100 mg/kg i.p.
In a second and third series of experiments, the efficacy of eight other HPPD inhibitor test compounds were assessed in the AMPT rat model of Parkinson's disease (Tables 1.5 & 1.6). Male Sprague-Dawley rats (300-350 g) were administered a single i.p. dose of 225 mg/kg AMPT and a single oral dose of 10 mg/kg of the HPPD inhibitor test compound was administered either 1 or 16 hours prior to (−16 or −1 hours) AMPT administration. Behavioral assessment (catalepsy and centre rearing counts) was conducted 8 hours post AMPT administration. The effect was compared with a vehicle control group and a group receiving AMPT alone.

[3] = Table 1.5: 225 mg/kg AMPT i.p. + 10 mg/kg oral at -16 hours, 8 h post AMPT
[4] = 225 mg/kg AMPT i.p. + 150 mg/kg i.p. at +6.5 hours, with benserazide 100 mg/kg i.p., 8 h post AMPT
[5] = 100 nM test compound, rat liver cytosol, 3 min pre-incubation
[6] = 300 nM test compound, rat liver cytosol, 3 min pre-incubation
[7] = 225 mg/kg AMPT i.p. + 2 mg/kg oral 4 hours post AMPT (+4 hours), 8 h post AMPT
[8] = 225 mg/kg AMPT i.p. + 2 mg/kg oral 16 hours prior to AMPT (-16 hours), 8 h post AMPT

T1 sequence (P32755 whole entry): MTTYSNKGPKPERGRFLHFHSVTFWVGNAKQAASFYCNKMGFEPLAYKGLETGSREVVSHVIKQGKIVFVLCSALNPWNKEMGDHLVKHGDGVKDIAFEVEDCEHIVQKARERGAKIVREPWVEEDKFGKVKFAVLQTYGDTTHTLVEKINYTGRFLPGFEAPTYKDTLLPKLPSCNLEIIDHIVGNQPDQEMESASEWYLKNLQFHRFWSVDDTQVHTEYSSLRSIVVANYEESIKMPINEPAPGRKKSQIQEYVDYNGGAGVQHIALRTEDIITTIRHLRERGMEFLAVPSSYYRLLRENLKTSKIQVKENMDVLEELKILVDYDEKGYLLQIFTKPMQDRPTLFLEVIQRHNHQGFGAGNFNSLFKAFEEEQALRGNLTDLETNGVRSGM

Row | SMILES | inhibition at 0.1 µM [1] | inhibition at 0.3 µM [1] | Plasma Tyrosine Concentration (plasma tyrosine; 1 hour post-dose) | Plasma Tyrosine Concentration (plasma tyrosine; 3 hours post-dose) | Plasma Tyrosine Concentration (plasma tyrosine; 6 hours post-dose) | Plasma Tyrosine Concentration (plasma tyrosine; 12 hours post-dose) | Plasma Tyrosine Concentration (plasma tyrosine; 24 hours post-dose) | Plasma Tyrosine Concentration (plasma tyrosine; 48 hours post-dose) | inhibition at 0.1 µM [1, 5] | also measured
1 | Cc1cc(C(=O)C2=C([O-])CCCC2=O)c(C)c2c1S(=O)(=O)CCC21OCCO1.[K+] [Compound 3.11] | 9% | 45% | 193 ± 22.9 nmol/mL | 338 ± 48.9 nmol/mL | 551 ± 80.7 nmol/mL | 1041 ± 106.0 nmol/mL | 2125 ± 65.8 nmol/mL | 993 ± 260.6 nmol/mL |  | Mean Catalepsy Descent Latency (s) [2, 3]: 9 ± 2.7^+++ s; Mean Centre Rearing Counts [2, 3]: 303 ± 53 counts; reversal of AMPT induced deficits in mean centre rearing counts (in words) ([2]; single oral dose 10 mg/kg, -16 or -1 hours): either partially or completely reversing; reversal of AMPT induced catalepsy (in words) ([2]; single oral dose 10 mg/kg, -16 or -1 hours, 10 mg/kg): substantially reversed; also recorded: effective in reversing
2 | CC1=NN(C)C(=O)C1C(=O)c1ccc(C(F)(F)F)cc1S(C)(=O)=O (stereo not shown) [Compound 3.21] | 10% | 43% | 177 ± 17.8 nmol/mL | 300 nmol/mL | 472 nmol/mL | 555 ± 39.0 nmol/mL | 181 ± 23.6 nmol/mL | 100 ± 6.4 nmol/mL |  | 
3 | N[C@@H](Cc1ccc(O)c(O)c1)C(=O)O [L-dopa, L-3,4-dihydroxyphenylalanine, reference compound] |  |  |  |  |  |  |  |  |  | Mean Catalepsy Descent Latency (s) [2, 4]: 25 ± 6.9^++ s; Mean Centre Rearing Counts [2, 4]: 258 ± 71^+ counts
4 | Cc1nc(C(F)F)ccc1C(=O)C1C(=O)C2CCC(C2)C1=O (stereo not shown) [Compound 3.26] |  |  |  |  |  |  |  |  | 20 ± 6.1% | inhibition at 0.3 µM [1, 6]: 43%; Plasma tyrosine (plasma tyrosine; 1 hour post-dose): 173 ± 9.6 nmol/mL; Plasma tyrosine (plasma tyrosine; 2 hours post-dose): 241 ± 24.0 nmol/mL; Plasma tyrosine (plasma tyrosine; 4 hours post-dose): 337 ± 53.5 nmol/mL; Plasma tyrosine (plasma tyrosine; 6 hours post-dose): 504 ± 72.7 nmol/mL; Plasma tyrosine (plasma tyrosine; 12 hours post-dose): 897 ± 140.8 nmol/mL; Plasma tyrosine (plasma tyrosine; 24 hours post-dose): 1987 ± 50.0 nmol/mL; Plasma tyrosine (plasma tyrosine; 48 hours post-dose): 2449 ± 156.8 nmol/mL
5 | COCCOCc1nc(C(F)(F)F)ccc1C(=O)C1=C(O)C2CCC(C2)C1=O (stereo not shown) [Compound 3.13] | 14% | 41% |  |  |  |  |  |  |  | IC50 ([1]; rat liver cytosol HPPD): 350 nM; Plasma tyrosine (plasma tyrosine; 1 hour post-dose): 158 ± 6.4 nmol/mL; Plasma tyrosine (plasma tyrosine; 2 hours post-dose): 209 ± 14.8 nmol/mL; Plasma tyrosine (plasma tyrosine; 4 hours post-dose): 324 ± 50.2 nmol/mL; Plasma tyrosine (plasma tyrosine; 6 hours post-dose): 461 ± 52.2 nmol/mL; Plasma tyrosine (plasma tyrosine; 12 hours post-dose): 801 ± 24.8 nmol/mL; Plasma tyrosine (plasma tyrosine; 24 hours post-dose): 1281 ± 90.0 nmol/mL; Plasma tyrosine (plasma tyrosine; 48 hours post-dose): 115 ± 3.0 nmol/mL
6 | CS(=O)(=O)c1cc(Cl)ccc1C(=O)c1cnoc1C1CC1 [Compound 3.25] |  |  | 162 ± 17.7 nmol/mL | 267 ± 19.4 nmol/mL | 370 ± 60.8 nmol/mL | 415 ± 152.8 nmol/mL | 136 ± 31.2 nmol/mL | 100 ± 13.5 nmol/mL | 5% | inhibition at 0.3 µM [1, 6]: 22%
7 | O=C1CCCC(O)=C1C(=O)c1ccc(C(F)(F)F)cc1[N+](=O)[O-] [Compound 2, 2-(2-Nitro-4-Trifluoromethylbenzoyl)-1,3-Cyclohexanedione] |  |  |  |  |  |  |  |  |  | Mean Catalepsy Descent Latency (s) [2, 7]: 27 ± 6.7^++ s; Mean Centre Rearing Counts [2, 7]: 298 ± 57^++ counts; Mean Catalepsy Descent Latency (s) [2, 8]: 27 ± 5.4^++ s; Mean Centre Rearing Counts [2, 8]: 364 ± 74^++ counts; Mean Catalepsy Descent Latency ([2]; AMPT vehicle (saline i.p., no AMPT) + 2 mg/kg oral at +4 hours, assessed 8 h): 12 ± 4.3 s; Mean Centre Rearing Counts ([2]; AMPT vehicle (saline i.p., no AMPT) + 2 mg/kg oral at +4 hours, assessed 8 h, 1 hour monitoring): 485 ± 108 counts; reversal of AMPT induced deficits in centre rearing counts (in words) ([2]; single oral dose 2 mg/kg, 2 mg/kg): reversed; also recorded: effective in reversing; reversal of AMPT induced catalepsy (in words) ([2]; single oral dose 2 mg/kg, both dosing regimens, 2 mg/kg): substantially reversed; also recorded: effective in reversing
8 | CCOc1c(S(C)(=O)=O)ccc(C(=O)C2C(=O)CC(C)CC2=O)c1Cl (stereo not shown) [Compound 3.22] |  |  | 179 ± 18.5 nmol/mL | 319 ± 43.5 nmol/mL | 507 ± 86.4 nmol/mL | 1011 ± 134.8 nmol/mL | 2067 ± 36.6 nmol/mL | 2377 ± 518.5 nmol/mL | 44% | 
